Results: US3980794A, “Method for promoting growth of poultry with 3-(5-nitro-2-imidazolyl)pyrazoles” (Eli Lilly and Company, priority 1975, dated 1976)
In brackets after ≈: the same amount, converted by molar mass. Like-named read-outs stand apart in the source and are kept apart here.

Legend:
Assay type in all cases: cell-based
[1] = system: Bacteroides fragilis sp. fragilis 1936B; experiment: Susceptibility of anaerobic bacteria, agar dilution; conditions: 24 h, read-out: 24 Hr. Minimum Inhibitory Concentration
[2] = system: Eubacterium aerofaciens 1235; experiment: as above; conditions: read-out: 24 Hr. Minimum Inhibitory Concentration
[3] = system: Fusobacterium necrophorum 13859; experiment: as above; conditions: read-out: 24 Hr. Minimum Inhibitory Concentration
[4] = system: Fusobacterium symbiosum 1470; experiment: as above; conditions: read-out: 24 Hr. Minimum Inhibitory Concentration
Actinomyces bovis 13684 = experiment: as above; conditions: read-out: 24 Hr. Minimum Inhibitory Concentration
[5] = system: Clostridium perfringens 81; experiment: microbe, parasite or virus in culture; conditions: Clostridium perfringens, 81, 24 h, read-out: 24 Hr. Minimum Inhibitory Concentration
[6] = system: Veillonella alcalescens 1; experiment: Susceptibility of anaerobic bacteria, agar dilution; conditions: read-out: 24 Hr. Minimum Inhibitory Concentration
[7] = system: Clostridium innocuum 1373; experiment: as above; conditions: read-out: 24 Hr. Minimum Inhibitory Concentration
[8] = system: Peptococcus anaerobius 1428; experiment: as above; conditions: 24 h, read-out: 24 Hr. Minimum Inhibitory Concentration
[9] = system: Propionibacterium acnes 44; experiment: as above; conditions: Cutibacterium acnes, 24 h; Propionibacterium acnes 44; read-out: 24 Hr. Minimum Inhibitory Concentration
[10] = system: Propionibacterium acnes 79; experiment: as above; conditions: read-out: 24 Hr. Minimum Inhibitory Concentration
[11] = system: Peptostreptococcus intermedius 1264; experiment: as above; conditions: 24 h; Peptostreptococcus intermedius 1264; read-out: 24 Hr. Minimum Inhibitory Concentration
[12] = system: Clostridium septicum bovine; experiment: as above; conditions: 24 h, read-out: 24 Hr. Minimum Inhibitory Concentration
Procedure: (§1) The susceptibility of anaerobic bacteria, both gram positive and gram negative, to a representative number of the novel compounds of this application was determined using the agar dilution method. The bacteria used were isolated from patients hospitalized at the Indiana University Medical Center. The isolates were identified in the anaerobe laboratory of the Medical Center by the criteria established by Dowell et al., Laboratory Methods in Anaerobic Bacteriology. Public Health Serv. Publ. No. 1803 (1968) [Center for Disease Control, Atlanta, Ga.]; and by Smith et al., The Pathogenic Anaerobic Bacteria, pages 96-136 (1968) [Charles C. Thomas, Publisher, Springfield, Ill.]. All the organisms were maintained in chopped meat glucose medium (Scott Labs) at room temperature.
(§2) The method used for the agar dilution tests was based on the studies of Sutter et al., Antimicrob. Ag. Chemother. 3, 188-193 (1973). The strains of anaerobic bacteria were grown in 16 × 120 mm. tubes for 16 to 18 hours in Thioglycolate medium without indicator--135C (Becton, Dickinson and Co.), to which was added 5 mcg. of hemin per milliliter prior to autoclaving, plus 1 mg. of sodium bicarbonate and 0.1 mcg. of filter-sterilized menadione per milliliter after autoclaving. The growth tubes for the bacteria Veillonella alcalescens were additionally supplemented with 5 mg. of sodium lactate per milliliter. The strains were adjusted to the turbidity of the No. 1 McFarland standard in Thioglycolate medium without indicator--135C containing an additional 0.13 percent Bacto-agar (Difco). Each strain was then applied to the surface of the petri plate (100 mm. × 15 mm.) by means of a replicator.
(§3) For the agar dilution studies, two-fold dilutions of the test compounds were prepared in deionized water to which was then added laked sheep blood and filter-sterilized menadione so the concentrations after the agar dilution were 5 percent and 10 mcg./ml. respectively. An equal volume of double strength Brucella agar (Becton, Dickinson and Co.) was mixed with each dilution in a water bath held at 50°C. and then poured onto the petri plates.
(§4) All of the procedures were done inside a plastic glove box, except for the incubation of the growth tubes and the pouring of the plates. After the plates hardened, they were put inside the glove box for a minimum of two hours before they were inoculated. Generally, the glove box procedures of Aranki et al., Applied Microbiology 17, 568-576 (1969), were followed, but the following modifications were used. Dry materials were introduced into the glove box by evacuating the lock to 28 inches of mercury and filling once with nitrogen gas, followed by evacuating in the same manner and filling with an 80 percent nitrogen plus 10 percent CO2 plus 10 percent hydrogen gas mixture. Liquid media and agar plates were introduced into the glove box by evacuating the lock to 10 inches of mercury and filling with gas four times. The nitrogen gas was used to fill the lock for the first two cycles of evacuation, with the gas mixture described above used for the final two fillings.
(§5) All the plates were incubated at 37°C. in Gas Pak jars (Becton, Dickinson and Co.) containing palladium-coated alumina catalysts (reactivated after each use). The results of the agar dilution tests were read after about 24 hours of incubation. The minimum inhibitory concentration (MIC) was recorded as the lowest concentration of test compound at which there was no growth.
(§6) The results of these in vitro tests are recorded in Charts 11 and 12 which follow. The test compounds are identified in the same manner as in the previous experiments. The antibiotics cephalothin and erythromycin were also run simultaneously with the novel compounds of this application, for comparison purposes, and the results are included in Charts 11 and 12 below.

[13] = system: Clostridium septicum 1128; experiment: as above; conditions: 24 h, read-out: 24 Hr. Minimum Inhibitory Concentration
Procedure: as §1, §2, §3, §4, §5, §6

[14] = system: Bacteroides fragilis sp. thetaiotaomicron 1438; experiment: as above; conditions: 24 h, read-out: 24 Hr. Minimum Inhibitory Concentration
[15] = system: Bacteroides fragilis sp. vulgatus 1563; experiment: as above; conditions: 24 h, read-out: 24 Hr. Minimum Inhibitory Concentration
Clostridium ramosum 1313 = experiment: as above; conditions: read-out: 24 Hr. Minimum Inhibitory Concentration
[16] = system: Bacteroides fragilis sp. fragilis 1877; experiment: as above; conditions: 24 h, read-out: 24 Hr. Minimum Inhibitory Concentration
[17] = system: Bacteroides fragilis sp. vulgatus 1211; experiment: as above; conditions: 24 h, read-out: 24 Hr. Minimum Inhibitory Concentration
[18] = Collinsella aerofaciens, 1235, 24 h
[19] = Fusobacterium necrophorum, 13859, 24 h
[20] = [Clostridium] innocuum, 1373, 24 h
[21] = Bacteroides fragilis sp. vulgatus 1563
[22] = Thomasclavelia ramosa, 1313, 24 h
[23] = Bacteroides fragilis sp. fragilis 1936B
[24] = Thomasclavelia ramosa, 24 h, Clostridium ramosum 1313

SMILES	MIC ([1]; Bacteroides fragilis)	MIC [2, 18]	MIC [3, 19]	MIC ([4]; Fusobacterium, 1470, 24 h)	MIC (Actinomyces bovis 13684; Actinomyces bovis, 13684, 24 h)	MIC [5]	MIC ([6]; Veillonella parvula, 1, 24 h)	MIC [7, 20]	MIC [9]	MIC ([10]; Cutibacterium acnes, 79, 24 h)	MIC [11]	MIC [12]	MIC [13]	MIC ([14]; Bacteroides fragilis)	MIC (Clostridium ramosum 1313; [22])	MIC ([16]; Bacteroides fragilis)	MIC ([17]; Bacteroides fragilis)	MIC [1, 23]	MIC ([8]; Peptococcus anaerobius 1428)	MIC ([15]; Bacteroides fragilis)	further results
CN(C)C=Nc1c(C#N)c(-c2ncc([N+](=O)[O-])n2C)nn1C [Compound 9, 5-[[(Dimethylamino)methylene]amino]-1-methyl-3-(1-methyl-5-nitro-2-imidazolyl)pyrazole-4-carbonitrile]	< 0.125 µg/mL	< 0.125 µg/mL	< 0.125 µg/mL	< 0.125 µg/mL	< 0.125 µg/mL	< 0.125 µg/mL	< 0.125 µg/mL	< 0.125 µg/mL	> 32 µg/mL	< 0.125 µg/mL	> 32 µg/mL	< 0.125 µg/mL	< 0.125 µg/mL	< 0.125 µg/mL	< 0.125 µg/mL	< 0.125 µg/mL	< 0.125 µg/mL	–	–	–	MIC [8]: < 0.125 µg/mL; MIC [15, 21]: 0.25 µg/mL (≈ 0.827 µM)
Cn1c([N+](=O)[O-])cnc1-c1nn(CCCl)c(N)c1C#N [Compound 15, 5-Amino-1-(2-chloroethyl)-3-(1-methyl-5-nitro-2-imidazolyl)pyrazole-4-carbonitrile]	–	< 0.125 µg/mL	< 0.125 µg/mL	< 0.125 µg/mL	–	< 0.125 µg/mL	< 0.125 µg/mL	< 0.125 µg/mL	> 32 µg/mL	< 0.125 µg/mL	8 µg/mL (≈ 27.1 µM)	< 0.125 µg/mL	0.25 µg/mL (≈ 0.845 µM)	< 0.125 µg/mL	–	< 0.125 µg/mL	< 0.125 µg/mL	0.5 µg/mL (≈ 1.69 µM)	1 µg/mL (≈ 3.38 µM)	< 0.125 µg/mL	MIC (Actinomyces bovis 13684; 24 h, Actinomyces bovis 13684): 1 µg/mL (≈ 3.38 µM); MIC (Clostridium ramosum 1313; [24]): 0.5 µg/mL (≈ 1.69 µM)
CCn1nc(-c2ncc([N+](=O)[O-])n2C)c(C#N)c1N [Compound 16, 5-Amino-1-ethyl-3-(1-methyl-5-nitro-2-imidazolyl)pyrazole-4-carbonitrile]	–	< 0.125 µg/mL	< 0.125 µg/mL	< 0.125 µg/mL	< 0.125 µg/mL	< 0.125 µg/mL	< 0.125 µg/mL	< 0.125 µg/mL	> 32 µg/mL	< 0.125 µg/mL	2 µg/mL (≈ 7.66 µM)	< 0.125 µg/mL	< 0.125 µg/mL	< 0.125 µg/mL	< 0.125 µg/mL	< 0.125 µg/mL	< 0.125 µg/mL	0.25 µg/mL (≈ 0.957 µM)	1 µg/mL (≈ 3.83 µM)	< 0.125 µg/mL	–
CCCn1nc(-c2ncc([N+](=O)[O-])n2C)c(C#N)c1N [Compound 22, 5-Amino-1-(n-propyl)-3-(1-methyl-5-nitro-2-imidazolyl)pyrazole-4-carbonitrile]	< 0.125 µg/mL	< 0.125 µg/mL	< 0.125 µg/mL	< 0.125 µg/mL	< 0.125 µg/mL	< 0.125 µg/mL	< 0.125 µg/mL	< 0.125 µg/mL	> 32 µg/mL	< 0.125 µg/mL	1 µg/mL (≈ 3.63 µM)	< 0.125 µg/mL	< 0.125 µg/mL	< 0.125 µg/mL	< 0.125 µg/mL	< 0.125 µg/mL	< 0.125 µg/mL	–	–	< 0.125 µg/mL	MIC [8]: < 0.125 µg/mL
CCNc1cc(-c2ncc([N+](=O)[O-])n2C)nn1C [Compound 11A, 5-(ethylamino)-1-methyl-3-(1-methyl-5-nitro-2-imidazolyl)pyrazole]	–	–	–	–	–	0.03 µg/mL (≈ 0.12 µM)	–	–	8 µg/mL (≈ 32 µM)	–	8 µg/mL (≈ 32 µM)	0.06 µg/mL (≈ 0.24 µM)	0.06 µg/mL (≈ 0.24 µM)	–	–	–	–	2 µg/mL (≈ 7.99 µM)	1 µg/mL (≈ 4 µM)	–	MIC ([2]; Collinsella aerofaciens, 24 h, Eubacterium aerofaciens 1235): < 0.03 µg/mL; MIC ([3]; 24 h, Fusobacterium necrophorum 13859): < 0.03 µg/mL; MIC ([4]; 24 h, Fusobacterium symbiosum 1470): < 0.03 µg/mL; MIC (Actinomyces bovis 13684; 24 h, Actinomyces bovis 13684): 2 µg/mL (≈ 7.99 µM); MIC ([6]; Veillonella parvula, 24 h, Veillonella alcalescens 1): 1 µg/mL (≈ 4 µM); MIC ([7]; 24 h, Clostridium innocuum 1373): 0.125 µg/mL (≈ 0.499 µM); MIC ([10]; Cutibacterium acnes, 24 h, Propionibacterium acnes 79): < 0.03 µg/mL; MIC ([14]; Bacteroides fragilis sp. thetaiotaomicron 1438): 0.06 µg/mL (≈ 0.24 µM); MIC [15, 21]: < 0.03 µg/mL; MIC (Clostridium ramosum 1313; [24]): 0.5 µg/mL (≈ 2 µM); MIC ([16]; Bacteroides fragilis sp. fragilis 1877): 0.06 µg/mL (≈ 0.24 µM); MIC ([17]; Bacteroides fragilis sp. vulgatus 1211): < 0.03 µg/mL
